Experimental data reported in patent US9458187B2, “Methods for treatment of inflammatory conditions using S-[4-(3-fleuro-3-methylbutyryloxy)but-2-ynyl]6α, 9α-difluoro-17α-(furan-2-yl) carbonyloxy-11β-hydroxy-16α-methyl-3-oxoandrosta-1,4-diene-17β-carbothioate” (Sun Pharma Advanced Research Company Limited, priority 2013, dated 2016).
One block for each compound: values may come before it.

Legend:
[1] = Sephadex-induced lung edema; type: in vivo, SD rats; settings: Sprague-Dawley, rat, thymus, other: intratracheal; i.t., 24 hrs and 2 hrs prior to Sephadex; read-out: ED50 Thymus involution
Method: (§1) Sephadex® G-200 was prepared in sterile saline (10 mg/ml) and allowed to swell for at least 3 days at room temperature. Test compounds were administered intratracheally at 24 hrs and 2 hrs prior to intratracheal administration of Sephadex® (5 mg/kg) under light ether anesthesia. Vehicle control animals were administered vehicle instead of Sephadex®. At 24 hr after Sephadex® instillation, lung and thymus were excised from individual animals and weighed. Wet weights of lungs and thymus were corrected for 100 g of initial body weight. The percentage increase in lung weight caused by Sephadex® and its inhibitions by the compounds, were calculated. The percentage inhibitions of thymus compared to vehicle control group were also calculated

[2] = system: liver glycogen deposition; experiment: Liver glycogen deposition; type: in vivo, Male Sprague Dawley rats; settings: 3 mg/kg intratracheal, 2 doses 24 hrs apart, adrenalectomized rats
Method: Male Sprague Dawley rats, weighing 190-220 g were bilaterally adrenalectomized and maintained on 0.9% saline solution throughout the experiment. On day 5th and 6th of adrenalectomy, animals were made into different groups, test compounds prepared in cold saline (sonicated for 30 min) were instilled intratracheally 2 doses @3 mg/kg, 24 hrs apart. At 15 hrs after the last treatment, animals were sacrificed and livers were excised and weighed. The glycogen content of the livers was determined by anthrone method. Briefly, a weighed quantity of liver tissue was homogenized with 5% trichloroacetic acid, supernatant mixed with ethanol and kept overnight for precipitation. The glycogen thus extracted was estimated as glucose generated after acid hydrolysis by addition of anthrone reagent at 620 nm. Glycogen content was expressed as mg/100 g liver.

[3] = system: liver glycogen deposition; experiment: Liver glycogen deposition; type: in vivo, Male Sprague Dawley rats; settings: 3 mg/kg intratracheal, 2 doses 24 hrs apart, adrenalectomized rats; remark: listed apart in the source
cotton pellet granuloma = experiment: Cotton pellet granuloma test; type: in vivo, SD rats; settings: 100 mcg/pellet
Method: SD rats were used for assessing anti-inflammatory activity of test compound using cotton pellet granuloma method. Sterilized cotton pellets weighing 20 mg were prepared. Test compounds were dissolved in acetone so as to get the required quantity for each cotton pellet in 500 μl. Different pellets were impregnated with 500 μl of acetone to contain required quantity of test compounds and allowed to dry. Vehicle control pellets were impregnated with 500 μl acetone.
Rats were made into different groups. Two cotton pellets were surgically implanted into the scapular region of each rat. On sixth day of such implantation, pellets along with granuloma were taken out. Thymus gland was also separated from each animal and weighed. The pellets with granuloma were dried for 20 hrs at 60° C. and weighed. Mean weights of dry granuloma and thymus, body weight gain/100 g body weights were calculated.

[4] = system: Sephadex-induced lung edema; experiment: Sephadex-induced lung edema; type: in vivo, SD rats; settings: Rattus norvegicus; i.t., 24 hrs and 2 hrs prior to Sephadex; read-out: ED50 Lung edema inhibition
Method: as §1

croton oil ear edema = experiment: Croton oil ear edema; type: in vivo, Mice (male, CD-1); settings: for Inhibition of ear edema (%): 1.6 μg, applied to ear 2 hrs before croton oil
Method: Mice (male, CD-1) were made into different groups. A method similar to one reported in the literature was used. Test compounds were dissolved in pyridine-water-acetone (4:2:14) solution 10 μl of this solution of compound or vehicle solution was applied to the left ear of the mice. The right ear of each mouse was applied simultaneously with 10 μl of pyridine: water: acetone (4:2:14) solution. After 2 hrs of compound or vehicle application, 10 μl of croton oil solution was applied to the left ear of all animals. After 6 hr of croton oil treatment the animals were sacrificed; ears were excised and weighed separately.

[5] = system: skin atrophy and systemic side effects; experiment: Skin atrophy and systemic side effects on topical application; type: in vivo, Male SD rats; settings: dermal, daily 14 days
Source text: Male SD rats were lightly anesthetized with isoflurane. Bilaterally paired sites were marked on the back, one on each side of the flank. One of the sites was applied with an appropriate dose of compound of the present invention and fluticasone propionate dissolved in the acetone, daily for a period of 14 days. Contralateral site served as solvent treated controls and received acetone. Body weights were monitored on 0-14 days. On day 15, twenty-four hours after the last applications, blood was collected from the tail vein to determine total and differential blood cell count. The animals were euthanized and full-thickness skin from shaved area was punched to get 15 mm diameter plugs. The subcutaneous fat and muscle was removed and the punched plug was weighed. Thymus weights of each animal were also determined as a marker of systemic corticosteroid activity

[6] = system: ovalbumin-induced increase in intranasal pressure; experiment: Ovalbumin-induced increase in intranasal pressure; type: in vivo, guinea pigs; settings: intranasal instillation 24 hr and 2 hr prior to ovalbumin challenge; FIG. 2
Method: Animals sensitized with ovalbumin as described above were used for experiments determining intranasal pressure. Intranasal instillation of compound of formula I, fluticasone propionate or placebo was done 24 hr and 2 hr prior to challenge with ovalbumin. The nasopharynx was catheterized with a PE cannula, one end of which was attached to pressure transducer and other to the nebulizer. Ovalbumin (5%) was nebulized into the nasal cavity for 10 min. The changes in intranasal pressure were recorded for following 45 min and differential pressure (dP) was calculated.

[7] = target: T1, Human Glucocorticoid receptor (Homo sapiens, UniProt P04150); experiment: Human glucocorticoid receptor binding (in vitro), [3H]dexamethasone radioligand; settings: at 0.1 μM
T1 construct: expressed in transfected cells; host or cells: human HeLa cells
T1 sequence (P04150 1-777): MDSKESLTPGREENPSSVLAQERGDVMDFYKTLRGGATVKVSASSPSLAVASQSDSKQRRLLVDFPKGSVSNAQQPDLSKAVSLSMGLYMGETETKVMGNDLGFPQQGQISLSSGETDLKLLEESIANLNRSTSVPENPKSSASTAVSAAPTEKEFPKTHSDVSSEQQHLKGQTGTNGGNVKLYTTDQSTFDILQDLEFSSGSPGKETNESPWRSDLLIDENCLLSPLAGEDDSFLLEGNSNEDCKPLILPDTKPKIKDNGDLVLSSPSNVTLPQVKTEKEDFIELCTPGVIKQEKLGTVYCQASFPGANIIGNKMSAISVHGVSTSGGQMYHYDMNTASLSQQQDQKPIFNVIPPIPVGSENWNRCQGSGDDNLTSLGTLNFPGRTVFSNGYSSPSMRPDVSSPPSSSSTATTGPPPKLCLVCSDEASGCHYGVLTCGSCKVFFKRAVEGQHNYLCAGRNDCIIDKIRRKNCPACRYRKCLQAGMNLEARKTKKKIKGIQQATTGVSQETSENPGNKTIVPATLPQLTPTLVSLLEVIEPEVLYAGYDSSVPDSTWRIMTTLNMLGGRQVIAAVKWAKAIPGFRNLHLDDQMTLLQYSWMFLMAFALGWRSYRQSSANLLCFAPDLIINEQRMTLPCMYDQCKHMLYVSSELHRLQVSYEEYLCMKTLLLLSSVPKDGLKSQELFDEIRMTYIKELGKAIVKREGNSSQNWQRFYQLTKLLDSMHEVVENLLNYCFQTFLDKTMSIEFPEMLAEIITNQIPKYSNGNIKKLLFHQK
Method: The activity of test compounds on glucocorticoid receptor was assessed using radioligand binding assays.
The % inhibition was evaluated using a single concentration of test compound and the corresponding radiolabeled ligand. Results are presented as the percent inhibition of specific binding. The values are average of duplicate determinations for each concentration.

ED50 at 24 h [1]: 0.68 mg/kg
Glycogen content [2]: 552.77 mg/100 g liver
% Inhibition of thymus [3]: 65.02%
SMILES: CCCC1O[C@@H]2C[C@H]3[C@@H]4CCC5=CC(=O)C=C[C@]5(C)[C@H]4[C@@H](O)C[C@]3(C)[C@]2(C(=O)CO)O1 (stereo partly shown) [Budesonide]

Thymus wt. (% Decrease) B (cotton pellet granuloma): 15.16%
ED50 at 24 h [1]: 3.13 mg/kg
Glycogen content [2]: 263.96 mg/100 g liver
% Inhibition of thymus [3]: 61.34%
SMILES: CC(C)C(=O)OCC(=O)[C@@]12O[C@H](C3CCCCC3)O[C@@H]1C[C@H]1[C@@H]3CCC4=CC(=O)C=C[C@]4(C)[C@H]3[C@@H](O)C[C@@]12C [Ciclesonide]
Mean % Inhibition of Granuloma A (cotton pellet granuloma): 63.38%
ED50 [4]: 0.388 mg/kg

SMILES: C[C@@H]1C[C@H]2[C@@H]3CCC4=CC(=O)C=C[C@]4(C)[C@@]3(F)[C@@H](O)C[C@]2(C)[C@@]1(O)C(=O)CO [Dexamethasone]
Inhibition of ear edema (%) (croton oil ear edema): 50.05%

Thymus wt. (% Decrease) B (cotton pellet granuloma): 73.56%
ED50 at 24 h [1]: 0.36 mg/kg
Glycogen content [2]: 1514.65 mg/100 g liver
% Inhibition of thymus [3]: 70.17%
SMILES: CCC(=O)O[C@]1(C(=O)SCF)[C@H](C)C[C@H]2[C@@H]3C[C@H](F)C4=CC(=O)C=C[C@]4(C)[C@@]3(F)[C@@H](O)C[C@@]21C [Fluticasone propionate]
Inhibition of ear edema (%) (croton oil ear edema): 81.09%
Mean % Inhibition of Granuloma A (cotton pellet granuloma): 66.04%
% Body Weight Gain ([5]; 6 μg/site): 68.1%
% Inhibition Lymphocytes ([5]; 6 μg/site): 31.7%
% Inhibition Neutrophils ([5]; 6 μg/site): 25.8%
% Inhibition Skin weight ([5]; 6 μg/site): 25.3%
% Inhibition Thymus ([5]; 6 μg/site): 2.0%
% Inhibition Total leukocyt ([5]; 6 μg/site): 31.4%
% Body Weight Gain ([5]; 18 μg/site): 67.4%
% Inhibition Lymphocytes ([5]; 18 μg/site): 15.9%
% Inhibition Neutrophils ([5]; 18 μg/site): 24.5%
% Inhibition Skin weight ([5]; 18 μg/site): 20.8%
% Inhibition Thymus ([5]; 18 μg/site): 5.4%
% Inhibition Total leukocyt ([5]; 18 μg/site): 17.5%
% Body Weight Gain ([5]; 60 μg/site): 61.9%
% Inhibition Lymphocytes ([5]; 60 μg/site): 15.6%
% Inhibition Neutrophils ([5]; 60 μg/site): 14.5%
% Inhibition Skin weight ([5]; 60 μg/site): 27.9%
% Inhibition Thymus ([5]; 60 μg/site): 23.0%
% Inhibition Total leukocyt ([5]; 60 μg/site): 15.2%
% Body Weight Gain ([5]; 180 μg/site): 42.5%
% Inhibition Lymphocytes ([5]; 180 μg/site): 34.1%
% Inhibition Neutrophils ([5]; 180 μg/site): 24.6%
% Inhibition Skin weight ([5]; 180 μg/site): 30.0%
% Inhibition Thymus ([5]; 180 μg/site): 55.0%
% Inhibition Total leukocyt ([5]; 180 μg/site): 32.7%
ED50 [4]: 0.086 mg/kg
inhibition of intranasal pressure [6]: equivalent inhibition

Glycogen content [2]: 1117.32 mg/100 g liver
% Inhibition of thymus [3]: 43.51%
SMILES: C[C@@H]1C[C@H]2[C@@H]3CCC4=CC(=O)C=C[C@]4(C)[C@@]3(Cl)[C@@H](O)C[C@]2(C)[C@@]1(OC(=O)c1ccco1)C(=O)CCl [Mometasone furoate]

SMILES: C[C@@H]1CC2C3C[C@H](F)C4=CC(=O)C=C[C@]4(C)[C@@]3(F)[C@@H](O)C[C@]2(C)[C@@]1(OC(=O)c1ccco1)C(=O)SCC#CCO (stereo partly drawn) [formula II, S-(4-Hydroxy-but-2-ynyl)6α,9α-difluoro-17α-(furan-2-yl)carbonyloxy-11β-hydroxy-16α-methyl-3-oxoandrosta-1,4-diene-17β-carbothioate]
potency in topical in vivo anti-inflammatory models such as croton oil ear edema (croton oil ear edema; compared with compound of the present invention): significantly less potent

SMILES: C[C@@H]1CC2C3C[C@H](F)C4=CC(=O)C=C[C@]4(C)[C@@]3(F)[C@@H](O)C[C@]2(C)[C@@]1(OC(=O)c1ccco1)C(=O)O (stereo partly shown) [formula III]
inhibition at 0.1 µM [7]: 2%
